Measured values from patent EP1337551B1, “SUBSTANCE P ANALOGS FOR THE TREATMENT OF CANCER” (DABUR PHARMA LTD., priority 2000, dated 2002).
Non-standard residues stand in square brackets, D forms with d. Residues, ends and D or L forms follow the SMILES beside them. pHOPA = not defined here

Experiments:
U373 (glioblastoma) = test: In vitro cytotoxic activity, MTT assay, 72 hours; type: cell-based, human
Description: (§1) The cytotoxic activity of synthesized peptides was tested on six human tumor cell lines namely MCF7 (breast), U373 (glioblastoma), PTC, (colon), L132 (lung), Su.86.86 (pancreas), and KB (oral). The tumor cells were collected at exponential growth phase and resuspended in medium (1.5 x 10^6 cells/ml in RPMI 1640 containing 10% FBS). 150µL of medium was added to the wells of a 96-well tissue culture plate (Nunc, Denmark) followed by 30µl of cell suspension. The plate was left in an incubator (37°C, 5% CO2) overnight. 20µl of the peptide (100 pM to 10 µM concentration) was added to marked wells of the 96-well plate. Each concentration was plated in triplicate. 20µl of medium alone was added to control wells while wells without cells served as blanks. A total volume of 200µL was ensured in each well and plate was left in incubator (37°C, 5% CO2). After 72 hours of incubation an MTT assay was performed and percentage cytotoxicity was calculated with respect to control cells.

MCF7 (breast) = test: In vitro cytotoxic activity, MTT assay, 72 hours; type: cell-based, human
Description: as §1

KB (oral) = test: In vitro cytotoxic activity, MTT assay, 72 hours; type: cell-based, human
Description: as §1

PTC, (colon) = test: In vitro cytotoxic activity, MTT assay, 72 hours; type: cell-based, human
Description: as §1

L132 (lung) = test: In vitro cytotoxic activity, MTT assay, 72 hours; type: cell-based, human
Description: as §1

Su.86.86 (pancreas) = test: In vitro cytotoxic activity, MTT assay, 72 hours; type: cell-based, human
Description: as §1

PA-1 (Ovary) = test: In vitro cytotoxic activity of lipo conjugates, MTT assay, 48 hours; type: cell-based
Description: (§2) The cytotoxic effect of lipo-conjugates of substance P analogs SEQ ID NO: 6, SEQ ID NO: 7 and SEQ ID NO: 8, was studied by MTT assay which is based on the principle of uptake of MTT [3-[4,5-dimethylthiazol-2-yl]-2,5-diphenyl tetrazolium bromide], a tetrazolium salt by the metabolically active cells where it is metabolized by active mitochondria in to a blue colored formazan product which can be read spectrophotometrically. Briefly, tumor cells - KB (Oral squamous), U87MG (Blioblastoma), HBL100 (Breast), HeP2 (Larngeal), ECV304 (Endothelial), PA-1 (Ovary) and L132 (Lunng) were incubated with the peptide analogs for 48 hours at 37°C in a 96-well culture plate, followed by the addition of 100 µg MTT and further incubation of 1 hour. The formazan crystals formed inside the cells were dissolved with a detergent comprising of 10% Sodium dodecyl sulfate and 0.01 N HCl and optical density read on a multiscan ELISA reader. The optical density was directly proportional to the number of proliferating and metabolically active cells. SEQ ID NO: 6

KB (Oral squamous) = test: as above; type: cell-based
Description: as §2

HeP2 (Larngeal) = test: as above; type: cell-based
Description: as §2

ECV304 (Endothelial) = test: as above; type: cell-based
Description: as §2

U87MG (Blioblastoma) = test: as above; type: cell-based
Description: as §2

HBL100 (Breast) = test: as above; type: cell-based
Description: as §2

L132 (Lunng) = test: as above; type: cell-based
Description: as §2

SCLC = conditions: inhibition of SCLC proliferation; cited from earlier work
[1] = test system: H-510 and H-69 SCLC cells; conditions: proliferation of H-510 and H-69 SCLC cells in liquid culture and in semi-solid media; cited from earlier work

CCCC(=O)N[C@H](CCCNC(=N)N)C(=O)N1CCC[C@H]1C(=O)N[C@@H](CCCCN)C(=O)N1CCC[C@H]1C(=O)N[C@H](Cc1ccccc1)C(=O)N[C@@H](CCC(N)=O)C(=O)N[C@H](Cc1c[nH]c2ccccc12)C(=O)N[C@@H](Cc1ccccc1)C(=O)N[C@H](Cc1c[nH]c2ccccc12)C(=O)N[C@@H](CC(C)C)C(=O)NC1(C(N)=O)CCCC1 [SEQ ID NO: 7, Butanoyl-D-Arg-Pro-Lys-Pro-D-Phe-Gln-D-Trp-Phe-D-Trp-Leu-Ac5c-NH2] (HELM PEPTIDE1{[CCCC(=O)[*:2]].[dR].P.K.P.[dF].Q.[dW].F.[dW].L.[O=C(C1(N[*:1])CCCC1)[*:2]].[am]}$$$$V2.0)
Percentage cytotoxicity at different concentrations (U373 (glioblastoma); 100pM): 10.9 ± 1.0% | Percentage cytotoxicity at different concentrations (U373 (glioblastoma); 1nM): 13.4 ± 4.6% | Percentage cytotoxicity at different concentrations (U373 (glioblastoma); 10nM): 6.6 ± 0.7% | Percentage cytotoxicity at different concentrations (U373 (glioblastoma); 100nM): 8.8 ± 0.2% | Percentage cytotoxicity at different concentrations (U373 (glioblastoma); 1µM): 8.3 ± 0.5% | Percentage cytotoxicity at different concentrations (U373 (glioblastoma); 10µM): 21.1 ± 1.7% | Percentage cytotoxicity at different concentrations (MCF7 (breast); MCF-7, 100pM): 19.3 ±1.8% | Percentage cytotoxicity at different concentrations (MCF7 (breast); MCF-7, 1nM): 20.55 ± 3.1% | Percentage cytotoxicity at different concentrations (MCF7 (breast); MCF-7, 10nM): 5.7 ± 1.5% | Percentage cytotoxicity at different concentrations (MCF7 (breast); MCF-7, 100nM): 15.4 ± 0.7% | Percentage cytotoxicity at different concentrations (MCF7 (breast); MCF-7, 1µM): 11.7 ± 5.1% | Percentage cytotoxicity at different concentrations (MCF7 (breast); MCF-7, 10µM): 19.7 ±5% | Percentage cytotoxicity at different concentrations (KB (oral); 100pM): Nil | Percentage cytotoxicity at different concentrations (KB (oral); 1nM): 6 ± 0.9% | Percentage cytotoxicity at different concentrations (KB (oral); 10nM): 10 ± 3.4% | Percentage cytotoxicity at different concentrations (KB (oral); 100nM): 10 ± 4.9% | Percentage cytotoxicity at different concentrations (KB (oral); 1µM): 4 ± 2.6% | Percentage cytotoxicity at different concentrations (KB (oral); 10µM): 15 ± 2.3% | Percentage cytotoxicity at different concentrations (PTC, (colon); 100pM): Nil | Percentage cytotoxicity at different concentrations (PTC, (colon); 1nM): Nil | Percentage cytotoxicity at different concentrations (PTC, (colon); 10nM): 5.8 ± 0.2% | Percentage cytotoxicity at different concentrations (PTC, (colon); 100nM): 5.3 ± 0.2% | Percentage cytotoxicity at different concentrations (PTC, (colon); 1µM): 11.7 ± 3.0% | Percentage cytotoxicity at different concentrations (PTC, (colon); 10µM): 27.3 ± 5.4% | Percentage cytotoxicity at different concentrations (L132 (lung); 100pM): 14 ± 3.4% | Percentage cytotoxicity at different concentrations (L132 (lung); 1nM): 25 ± 8% | Percentage cytotoxicity at different concentrations (L132 (lung); 10nM): 19 ± 3.3% | Percentage cytotoxicity at different concentrations (L132 (lung); 100nM): 9 ± 2.3% | Percentage cytotoxicity at different concentrations (L132 (lung); 1µM): 9 ± 2.3% | Percentage cytotoxicity at different concentrations (L132 (lung); 10µM): 15 ± 2.3% | Percentage cytotoxicity at different concentrations (Su.86.86 (pancreas); Su8686, 100pM): 6 ± 1.8% | Percentage cytotoxicity at different concentrations (Su.86.86 (pancreas); Su8686, 1nM): 25 ± 5.3% | Percentage cytotoxicity at different concentrations (Su.86.86 (pancreas); Su8686, 10nM): 10 ± 2.8% | Percentage cytotoxicity at different concentrations (Su.86.86 (pancreas); Su8686, 100nM): 15 ± 3.8% | Percentage cytotoxicity at different concentrations (Su.86.86 (pancreas); Su8686, 1µM): 36 ± 3.3% | Percentage cytotoxicity at different concentrations (Su.86.86 (pancreas); Su8686, 10µM): 38 ± 4.3% | Percentage cytotoxicity at different concentrations (PA-1 (Ovary); 1nM): 12.7 ± 3.5% | Percentage cytotoxicity at different concentrations (PA-1 (Ovary); 10nM): 26.7 ± 2.4% | Percentage cytotoxicity at different concentrations (PA-1 (Ovary); 100nM): 32.9 ± 2.6% | Percentage cytotoxicity at different concentrations (PA-1 (Ovary); 1µM): 23.7 ± 3.3% | Percentage cytotoxicity at different concentrations (KB (Oral squamous); 1nM): 20.9 ± 3.6% | Percentage cytotoxicity at different concentrations (KB (Oral squamous); 10nM): 21.9 ± 4.1% | Percentage cytotoxicity at different concentrations (KB (Oral squamous); 100nM): 18.0 ± 5.2% | Percentage cytotoxicity at different concentrations (KB (Oral squamous); 1µM): 9.0 ± 5.3% | Percentage cytotoxicity at different concentrations (HeP2 (Larngeal); 1nM): 16.4 ± 3.2% | Percentage cytotoxicity at different concentrations (HeP2 (Larngeal); 10nM): 19.8 ± 4.8% | Percentage cytotoxicity at different concentrations (HeP2 (Larngeal); 100nM): 24.7 ± 2.5% | Percentage cytotoxicity at different concentrations (HeP2 (Larngeal); 1µM): 12.9 ± 1.4% | Percentage cytotoxicity at different concentrations (ECV304 (Endothelial); 1nM): 13.9 ± 4.5% | Percentage cytotoxicity at different concentrations (ECV304 (Endothelial); 10nM): 16.5 ± 3.3% | Percentage cytotoxicity at different concentrations (ECV304 (Endothelial); 100nM): 20.9 ± 2.3% | Percentage cytotoxicity at different concentrations (ECV304 (Endothelial); 1µM): 6.0 ± 2.4% | Percentage cytotoxicity at different concentrations (U87MG (Blioblastoma); 1nM): 22.9 ± 2.3% | Percentage cytotoxicity at different concentrations (U87MG (Blioblastoma); 10nM): 27.8 ± 2.2% | Percentage cytotoxicity at different concentrations (U87MG (Blioblastoma); 100nM): 21.8 ± 1.2% | Percentage cytotoxicity at different concentrations (U87MG (Blioblastoma); 1µM): 14.8 ± 1.4% | Percentage cytotoxicity at different concentrations (HBL100 (Breast); 1nM): 13.9 ± 3.5% | Percentage cytotoxicity at different concentrations (HBL100 (Breast); 10nM): 22.9 ± 3.8% | Percentage cytotoxicity at different concentrations (HBL100 (Breast); 100nM): 23.9 ± 1.7% | Percentage cytotoxicity at different concentrations (HBL100 (Breast); 1µM): 22.8 ± 1.4% | Percentage cytotoxicity at different concentrations (L132 (Lunng); 1nM): 14.9 ± 4.9% | Percentage cytotoxicity at different concentrations (L132 (Lunng); 10nM): 24.7 ± 3.5% | Percentage cytotoxicity at different concentrations (L132 (Lunng); 100nM): 18.5 ± 3.6% | Percentage cytotoxicity at different concentrations (L132 (Lunng); 1µM): 12.9 ± 2.4%

D-MePhe-D-Trp-Phe-D-TrpLeu(psi)-(CH2NH)-Leu-NH2 [Analog 6]
IC50 (SCLC): 2 µM

D-MePhe-D-Trp-Phe-DTrp-Leu-MPA [Analog 7]
IC50 (SCLC): 5 µM

[D-Arg^1, D-Phe^5, D-Trp^7,9, Leu^11] substance P [Antagonist D]
IC50 [1]: 5 µM

pHOPA-D-Trp-Phe-D-Trp-Leu-Leu-NH2 (pHOPA-[dW]F[dW]LL-NH2; reading uncertain) [Analog R]
IC50 (SCLC): 10 µM
